Data on nine compounds can be found in PMC5737775 (Journal of Alzheimer's disease : JAD, 2017).

Data set [1] has as its system IL-6 production by peritoneal macrophages stimulated with LPS. Description: IL-6 secretion by LPS-stimulated murine peritoneal macrophages. The data set is classed as cell-based, C57Bl/6 mice. The note with it: for inhibition of IL-6 at 30 μM: 30 μM compound, LPS 10 ng/mL; for anti-inflammatory activity (IL-6 secretion), result in words: LPS-stimulated macrophages, 1, 3, 10, 30 μM.

In another data set the test system is peritoneal macrophages. Description: MTT cytotoxicity assay on peritoneal macrophages. The data set is classed as cell-based, C57Bl/6 mice. The settings on record: for cell viability (MTT): at the concentrations tested (1, 3, 10, 30 μM).
The target of data set [2] is rAβ42 (Aβ1-42) aggregation (Homo sapiens, UniProt P05067). Description: Thioflavin T assay of Aβ42 aggregation. The note with it: for anti-aggregation activity, result in words: Aβ1-42, 48 h, thioflavin T, 1, 3, 10, 30 μM. Format: biochemical.
Sequence of rAβ42 (Aβ1-42) aggregation (P05067 672-713 limits assumed): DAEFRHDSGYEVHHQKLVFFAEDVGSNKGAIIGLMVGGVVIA

Regarding `C=CCOC(=O)CCC(=O)Oc1ccc(/C=C/C(=O)/C=C(O)/C=C/c2ccc(OC(=O)CCC(=O)OCC=C)c(OC)c2)cc1OC` [Compound 5, diallyl O,O′-(((1E,3Z,6E)-3-hydroxy-5-oxohepta-1,3,6-triene-1,7-diyl)bis(2-methoxy-4,1-phenylene)) disuccinate], in data set [1], the “inhibition of IL-6 at 30 μM” value is reported as “complete inhibition” and the “anti-inflammatory activity (IL-6 secretion), result in words” value (“anti-inflammatory activity” for short) is recorded as “mid-to-strong inhibition”. The “cytotoxicity (MTT) at 30 μM” value in the data set on peritoneal macrophages (30 μM) is on record as “exhibited cytotoxicity”. Also, the “anti-aggregation activity, result in words” value (from here on “anti-aggregation activity”) in data set [2] is on record as “inhibited the aggregation of Aβ in a concentration-dependent manner”.

For `C#CCOc1ccc(/C=C/C(=O)CC(=O)/C=C/c2ccc(OCC#C)c(OC)c2)cc1OC` [Compound 2, (1E,6E)-1,7-bis(3-methoxy-4-(prop-2-yn-1-yloxy)phenyl)hepta-1,6-diene-3,5-dione], the “anti-aggregation activity” value in data set [2] is recorded as “did not present anti-aggregation activity”.

As for `COc1cc(/C=C/C(O)=C/C(=O)/C=C/c2ccc(OC(=O)CCC(=O)OC3CCCC3)c(OC)c2)ccc1O` [Compound 10, cyclopentyl (4-((1E,4Z,6E)-5-hydroxy-7-(4-hydroxy-3-methoxyphenyl)-3-oxohepta-1,4,6-trien-1-yl)-2-methoxyphenyl) succinate], in data set [1], the “inhibition of IL-6 at 30 μM” value is listed as “complete inhibition” and the “anti-inflammatory activity” value was “mid-to-strong inhibition”. The “cell viability (MTT)” value in the data set on peritoneal macrophages is on record as “did not affect the cell viability”. For the same compound, in data set [2], the IC50 was 2040 ± 700 nM and the “anti-aggregation activity” value is “inhibited the aggregation of Aβ in a concentration-dependent manner”.

As for `COc1cc(C=CC(=O)C=C(O)C=Cc2ccc(OC(=O)CCC(=O)OC3CCCC3)c(OC)c2)ccc1OC(=O)CCC(=O)OC1CCCC1` [Compound 9, dicyclopentyl O,O′-(((1E,3Z,6E)-3-hydroxy-5-oxohepta-1,3,6-triene-1,7-diyl)bis(2-methoxy-4,1-phenylene)) disuccinate], the “anti-inflammatory activity” value in data set [1] is on record as “did not show any anti-inflammatory activity”. The “anti-aggregation activity” value in data set [2] was “did not present anti-aggregation activity”.

In the case of `COc1cc(/C=C/C(O)=C/C(=O)/C=C/c2ccc(OCc3ccccc3)c(OC)c2)ccc1O` [Compound 3, (1E, 4Z, 6E)-1-(4-(benzyloxy)-3-methoxyphenyl)-5-hydroxy-7-(4-hydroxy-3-metho-xyphenyl)hepta-1,4,6-trien-3-one], in data set [2], the “anti-aggregation activity” value is on record as “inhibited the aggregation of Aβ in a concentration-dependent manner”.

In the case of `C=CCOC(=O)CCC(=O)Oc1ccc(/C=C/C(=O)/C=C(O)/C=C/c2ccc(O)c(OC)c2)cc1OC` [Compound 6, allyl (4-((1E,4Z,6E)-5-hydroxy-7-(4-hydroxy-3-methoxyphenyl)-3-oxohepta-1,4,6-trien-1-yl)-2-methoxyphenyl) succinate], in data set [1], the “inhibition of IL-6 at 30 μM” value was “complete inhibition” and the “anti-inflammatory activity” value was “mid-to-strong inhibition”. Also, the “cell viability (MTT)” value in the data set on peritoneal macrophages is on record as “did not affect the cell viability”. Also, in data set [2], the IC50 turned out to be 1770 ± 900 nM and the “anti-aggregation activity” value is “inhibited the aggregation of Aβ in a concentration-dependent manner”.

On to `COc1cc(/C=C/C(O)=C/C(=O)/C=C/c2ccc(OC(C)=O)c(OC)c2)ccc1O` [Compound 4, 4-((1E,4Z,6E)-5-hydroxy-7-(4-hydroxy-3-methoxyphenyl)-3-oxohepta-1,4,6-trien-1-yl)-2-methoxyphenyl acetate], for which, in data set [2], the half-inhibitory concentration (IC50) came out at 1320 ± 700 nM and the “anti-aggregation activity” value is on record as “inhibited the aggregation of Aβ in a concentration-dependent manner”.

As for `COc1cc(/C=C/C(O)=C/C(=O)/C=C/c2ccc(OC(=O)CCC(=O)OCc3ccccc3)c(OC)c2)ccc1O` [Compound 8, benzyl (4-((1E,4Z,6E)-5-hydroxy-7-(4-hydroxy-3-methoxyphenyl)-3-oxohepta-1,4,6-trien-1-yl)-2-methoxyphenyl) succinate], in data set [1], the “inhibition of IL-6 at 30 μM” value is reported as “complete inhibition” and the “anti-inflammatory activity” value was “mid-to-strong inhibition”. The “cell viability (MTT)” value in the data set on peritoneal macrophages was “did not affect the cell viability”. In data set [2], the “anti-aggregation activity” value is reported as “did not present anti-aggregation activity”.

Turning to `COc1cc(/C=C/C(=O)/C=C(O)/C=C/c2ccc(OC(=O)CCC(=O)OCc3ccccc3)c(OC)c2)ccc1OC(=O)CCC(=O)OCc1ccccc1` [Compound 7, dibenzyl O,O′-(((1E,3Z,6E)-3-hydroxy-5-oxohepta-1,3,6triene-1,7-diyl)bis(2-methoxy-4,1-phenylene)) disuccinate], the “anti-inflammatory activity” value in data set [1] was “did not show any anti-inflammatory activity”.
